Consider three compounds from patent US6280712A, “Sun screen agents” (Cognis Deutschland GmbH, priority 1997, dated 2001).

What all share (format): physicochemical
Data set [1] is described as follows: Volatility of the oil (remark in Table 1). The settings on record: remark at Zeidler spreading value.
The next data set can be described thus: Zeidler spreading value. The source says:
in which R^1 and R^2 independently of one another represent linear or branched alkyl and/or alkenyl groups containing 1 to 22 carbon atoms, with the proviso that they contain in all at least 12, preferably 12 to 50 and more preferably 15 to 25 carbon atoms. The compounds are obtained by transesterifying dimethyl or diethyl carbonate, for example, with the corresponding fatty alcohols in known manner. Accordingly, the fatty carbonates may be symmetrical or non-symmetrical. However, carbonates in which R^1 and R^2 are the same and represent C6-16 alkyl groups are preferably used. Transesterification products of dimethyl or diethyl carbonate with octanol, 2-ethylhexyl alcohol, decanol, cetyl alcohol, cetearyl alcohol, stearyl alcohol, isostearyl alcohol, oleyl alcohol, behenyl alcohol and/or erucyl alcohol in the form of their mono- and diesters or technical mixtures and Guerbet alcohols containing 8 to 24 carbon atoms are particularly preferred. […] The dialkyl carbonates may be used in quantities of 1 to 30% by weight, preferably 5 to 20% by weight and more preferably 8 to 10% by weight, based on the composition.

The nature of data set [2]: High-spreading property (statement in words). The note with it: general statement.
Data set [3] in a line: Dissolving power for UV filters (statement in words). The note with it: for dissolving properties for UV filters: general statement; for dissolving power for UV filters: in contrast to other high-spreading oils, for example dialkyl ethers or cyclomethicone.

On to Cyclomethicone [reference compound], for which the volatility entry in data set [1] is given as “volatile”. Besides, in the data set “Zeidler spreading value”, the Zeidler spreading value is greater than 1600 mm^2/10 mins.

As to `CCCCC(CC)COC(=O)OCC(CC)CCCC` (stereo not shown) [di-2-ethylhexyl carbonate], the spreading entry in data set [2] is “high-spreading”. Further, in data set [3], the “dissolving properties for UV filters” value was “excellent dissolving properties for UV filters” and the “dissolving power for UV filters” value was “distinctly higher dissolving power for UV filters”. This compound had a Zeidler spreading value in “Zeidler spreading value” of 1600 mm^2/10 mins.

Take `CCCCCCCCOC(=O)OCCCCCCCC` [di-n-octyl carbonate]: the spreading entry in data set [2] is given as “high-spreading”. For the same compound, in data set [3], the “dissolving properties for UV filters” value is listed as “excellent dissolving properties for UV filters” and the “dissolving power for UV filters” value is “distinctly higher dissolving power for UV filters”. The compound also returned a Zeidler spreading value in the data set “Zeidler spreading value” of 1600 mm^2/10 mins.
